The values below come from patent publication US9192647B2, “Method for reversing recent-onset type 1 diabetes (T1D) by administering substance P (sP)” (priority 2013, dated 2015).

Structures are written as SMILES. “Also recorded” adds a separate entry of the source. Like-named read-outs stand apart in the source and are kept apart here. Where only a bound is given, the exact number is not on record here.

Data set [1] has as its system pancreas. Particulars: intra-arterial injection, recent-onset diabetic mice, dose range 0.01-250 nmol/kg; cited from earlier work.
For data set [2] the following is noted: cited from earlier work; for tissue half-life: in vivo.
Data set [3] concerns pancreas. The data set is described as follows: pancreas pathology / toxicity after intra-arterial sP injection in rodents. The format is in vivo, mouse. An excerpt: Both islets are surrounded by normal exocrine pancreas tissue without any lesions typical for pancreatitis.
For disease induction, the standard experimental pancreatitis model employs multiple high dose injections of the toxic secretagogue caerulein (Koh et al., J. Cell. Mol. Med. 15, 2139-2149 (2011)).

For data set [4] the following is noted: earlier and current trials, literature and trials registry, cited from earlier work.
Data set [5] has as its system pancreas. The data set is described as follows: large animal study of pancreatic sP injection via the celiac artery. It counts as in vivo, dog. On the procedure:
A large animal study in dogs has recently been completed, seeking evidence for sP-induced pancreas toxicity following pancreatic injection of sP via the celiac artery. […] The injections were conducted by the Sick Kids' clinical imaging team. Since this VanilloidGenetics-sponsored study is unlikely to be published by itself, excerpt imaging data are provided in the Protocol Addendum, showing the pancreas-selective, rapidly transient (˜7 min) sP effect as measured with a co-injected, inert blue dye marker. The short-lived, physiological sP responses (hyperemia→pancreas→selective hyperperfusion and extravasation→normal pancreas appearance) illustrate the core effects expected to be duplicated in T1D patients.
A large animal study of pancreatic sP injection in dogs, using modern pancreatitis diagnostics is currently being conducted (Mansfield et al., J. Vet. Diagn. Invest. 23, 691-697 (2011)) and histopathology for the detection of possible pancreatitis lesions. Data are expected to be complete within about two weeks of this writing, in time for the anticipated Pre-CTA meeting. Dogs are a rational choice of large animal experimental model, since Dogs spontaneously develop pancreatitis, have successfully been used in studies of experimental pancreatitis and well tested diagnostics are available (Trivedi et al., J. Vet. Intern. Med. 25, 1241-1247 (2011)).

With `CSCC[C@H](NC(=O)[C@H](CC(C)C)NC(=O)CNC(=O)[C@H](Cc1ccccc1)NC(=O)[C@H](Cc1ccccc1)NC(=O)[C@H](CCC(N)=O)NC(=O)[C@H](CCC(N)=O)NC(=O)[C@@H]1CCCN1C(=O)[C@H](CCCCN)NC(=O)[C@@H]1CCCN1C(=O)[C@@H](N)CCCN=C(N)N)C(N)=O` [sP, substance P], the “pancreas pathology consistent with pancreatitis” value in data set [1] is on record as “has not been observed”. The vascular half-life time in data set [2] (as low as) was under 30 s; in data set [2] (in some locales), “up to a minute”. In addition, the tissue half-life in data set [2] is under 60 s; in data set [2] (listed as substance P), “a minute or less”. Further, the “time to inactivation in tissue” value in data set [2] (proteolytic degradation and binding to NK1R in tissue) was “within seconds”. In data set [3] (10, 50, 100 or 250 nmol/kg BW), the “tolerability in rodent studies” value is listed as “well tolerated”. The “tissue damage or pancreatitis-like disease” value in data set [3] (sP injection without caerulein) is “does not cause tissue damage or pancreatitis-like disease”. Also, the “sP pancreas toxicity in rodents” value in data set [3] (without caerulein pretreatment) is reported as “has not been observed”. Besides, the “toxicity / adverse events in human clinical sP trials” value is listed as “without sP-attributable adverse events” in data set [4] and “lack of toxicity” in data set [4] (listed as substance P). Moreover, the “tolerability in canine studies” value in data set [5] (10, 50, 100 or 250 nmol/kg BW) is listed as “well tolerated”. Besides, the “sP-induced pancreas toxicity in dogs” value in data set [5] (celiac artery injection, study-relevant dose range, blood tests (>1200 assays) and histopathology) was “not pancreas toxic; also recorded: No drug-induced toxicity was found”. For the same compound, in data set [5] (entire canine study), the “adverse events of sP celiac injections” value is recorded as “without adverse events”.
